Laboratory results published in EP1137645B1, “ALPHA-METHYLBENZYL-CONTAINING THIOUREA INHIBITORS OF HERPES VIRUSES CONTAINING A […] GROUP” (Wyeth, priority 1998, dated 2000).
Values after ≈ are worked out from the molar mass of the structure shown. Where two headings read alike, the source gives them in different places.

Experiments:
VZV strain Ellen = assay: VZV antiviral (ELISA) assay; type: cell-based
Experimental: For the generation of stock VZV to be used in the assay, VZV strain Ellen (ATCC #VR-1367) is used to infect human foreskin fibroblast (HFF) cells at low multiplicity (less than 0.1) and incubated overnight at 37°C in 5% CO2. After the overnight incubation, the mixture of uninfected and VZV-infected HFF infected cells are then harvested and added to each well of 96-well plates (3.5x10^4 cells in 100 µl DMEM supplemented with 2% FBS) which contain test compound or the reference standard drug control (in 100µl DMEM supplemented with 2% FBS per well). These cells are incubated for three days at 37°C in 5% CO2, then fixed for ELISA assay. The primary antibody is murine anti-VZV glycoprotein II monoclonal antibody (Applied Biosystems, Inc. #13-145-100) and the secondary antibody is goat anti-mouse IgG linked to β-galactosidase. Thus the extent of viral replication is determined by assessing β-galactosidase activity by quantifying the generation of the 4-methyl umbelliferone fluorescent cleavage product after addition of the methyl umbelliferyl-β-D-galactoside (Sigma #M1633) substrate on a microfluorimeter (365nm for excitation and 450nm for emission). Antiviral activity (IC50) of the test compound is determined by comparing the flourescence obtained in absence of compound to that obtained in the presence of compound.

[1] = test system: HCMV recombinant mutant virus whose genome contains the prokaryotic beta-glucuronidase gene; assay: microbe, parasite or virus in culture; type: cell-based, human cytomegalovirus; conditions: for IC50: Human betaherpesvirus 5, Fibroblast
Source text: Microtiter plate assay. Ninety-six well plate cultures of human foreskin fibroblasts are infected in the presence of inhibitor compound with a HCMV recombinant mutant virus whose genome contains the prokaryotic beta-glucuronidase gene (Jefferson, R. A., S. M. Burgess, and D. Hirsh. 1986. Beta-glucuronidase from Escherichia coli as a gene fusion marker. Proc. Natl. Acad. Sci. USA 83:8447-8451) whose expression is controlled by a viral promoter. An example of such a virus is RV145 (Jones, T. R., V. P. Muzithras, and Y. Gluzman. 1991. Replacement mutagenesis of the human cytomegalovirus genome: US10 and US11 gene products are nonessential. J. Virol. 65:5860-5872). Since it is under the control of a viral promoter, beta-glucuronidase expression is an indirect indicator of growth and replication of HCMV in this assay. At 96 hours post-infection, the infected cell lysates are prepared (using 50mM sodium phosphate [pH7.0] containing 0.1% Triton X-100 and 0.1% sarkosyl) and assayed for beta-glucuronidase activity using a substrate for the enzyme which when cleaved yields either a product which can be measured colorimetrically in a spectrophotometer or fluorescently in a microfluorimeter. Examples of such substrates are p-nitrophenyl-beta-D-glucuronide and methylumbelliferylglucuronide, respectively. The presence of an antiviral compound is indicated by the reduced expression of the HCMV genome resident beta-glucuronidase gene, compared to the absence of inhibitor. […] Data from this assay generated using varying amounts of inhibitor compound is also used to estimate the IC50 of an inhibitor compound.

[2] = Human alphaherpesvirus 3, VZV strain Ellen, HFF cells, ELISA, read-out: IC50 (ug/ml) VZV
[3] = read-out: IC50 ug/ml HCMV, HCMV, human foreskin fibroblasts
[4] = Human alphaherpesvirus 3, HFF, read-out: IC50 (ug/ml) VZV, VZV strain Ellen, HFF cells, ELISA

## O=C(Nc1ccc(NC(=S)NCc2ccc(F)c(C(F)(F)F)c2)cc1)c1ccccc1F [Example 623, 2-Fluoro-N-{4-[3-(4-fluoro-3-trifluoromethyl-benzyl)-thioureido]-phenyl}-benzamide]
VZV strain Ellen; [2]
  IC50: > 10 µg/mL

## CC(NC(=S)Nc1ccc(NC(=O)c2ccccc2F)cc1)c1ccc(C(F)(F)F)cc1F (stereo not shown) [Example 1106, 2-fluoro-N-(4-{[({1-[2-fluoro-4-(trifluoromethyl)phenyl]ethyl}amino)carbothioyl]amino}phenyl)benzamide]
[1]; read-out: IC50 ug/ml HCMV
  IC50: 1.1 µg/mL (≈ 2.29 µM)
VZV strain Ellen; [2]
  IC50: > 7.5 µg/mL

## CC(NC(=S)Nc1ccc(NC(=O)c2cc3ccccc3cn2)cc1)c1ccc(F)cc1 (stereo not shown) [Example 984, Isoquinoline-3-carboxylic acid (4-{3-[1-(4-fluoro-phenyl)-ethyl]-thioureido}-phenyl)-amide]
[1]; [3]
  IC50: 1.5 µg/mL (≈ 3.37 µM)
VZV strain Ellen; [4]
  IC50: 0.08 µg/mL (≈ 0.18 µM)

## O=C(Nc1ccc(NC(=S)Nc2cc(N3CCCC3)cc(C(F)(F)F)c2)cc1)c1ccccc1F [Example 566, 2-Fluoro-N-{4-[3-(3-pyrrolidin-1-yl-5-trifluoromethyl-phenyl)-thioureido]-phenyl}-benzamide]
[1]; [3]
  IC50: > 0.5 µg/mL
VZV strain Ellen; [4]
  IC50: 2 µg/mL (≈ 3.98 µM)

## O=C(Nc1ccc(NC(=S)NCCc2ccccc2)cc1)c1ccccc1F [Example 576, 2-Fluoro-N-[4-(3-phenethyl-thioureido)-phenyl]-benzamide]
[1]; read-out: IC50 ug/ml HCMV
  IC50: > 0.5 µg/mL
VZV strain Ellen; [2]
  IC50: 8 µg/mL (≈ 20.3 µM)

## CC(C)Cc1cc(NC(=S)Nc2ccc(NC(=O)c3ccccc3F)cc2)cc(C(F)(F)F)c1 [Example 578, 2-Fluoro-N-{4-[3-(3-isobutyl-5-trifluoromethyl-phenyl)-thioureido]-phenyl}-benzamide]
VZV strain Ellen; [4]
  IC50: > 10 µg/mL

## CN(C)c1ccc(CNC(=S)Nc2ccc(NC(=O)c3ccccc3F)cc2)cc1C(F)(F)F [Example 610, N-{4-[3-(4-Dimethylamino-3-trifluoromethyl-benzyl)-thioureido]-phenyl}-2-fluoro-benzamide]
[1]; [3]
  IC50: > 0.5 µg/mL
VZV strain Ellen; [4]
  IC50: > 10 µg/mL

## CN1CCC(N(C)c2ccc(NC(=S)Nc3ccc(NC(=O)c4ccccc4F)cc3)cc2Cl)CC1 [Example 855, N-[4-(3-{3-Chloro-4-[methyl-(1-methyl-piperidin-4-yl)-amino]-phenyl}-thioureido)-phenyl]-2-fluoro-benzamide]
[1]; HCMV, human foreskin fibroblasts
  IC50 ug/ml HCMV: 0.7 µg/mL (≈ 1.33 µM)
VZV strain Ellen; Human alphaherpesvirus 3, read-out: % inhibition 10 ug/ml VZV, 10 ug/ml, VZV strain Ellen, HFF cells, ELISA
  inhibition at 10 µg/mL: 52%
VZV strain Ellen; [2]
  IC50: > 10 µg/mL

## CN(C)c1cc(NC(=S)Nc2ccc(NC(=O)c3ccccc3F)cc2)cc(C(F)(F)F)c1 [Example 567, N-{4-[3-(3-Dimethylamino-5-trifluoromethyl-phenyl)-thioureido]-phenyl}-2-fluoro-benzamide]
[1]; read-out: IC50 ug/ml HCMV
  IC50: > 0.5 µg/mL
VZV strain Ellen; [2]
  IC50: 2 µg/mL (≈ 4.2 µM)

## COc1ccccc1C(=O)Nc1ccc(NC(=S)N[C@@H](C)c2ccc(Br)cc2)cc1 [Example 1104, N-(4-{3-[(1S)-1-(4-Bromo-phenyl)-ethyl]-thioureido}-phenyl)-2-methoxy-benzamide]
[1]; [3]
  IC50: 4.9 µg/mL (≈ 10.1 µM)
VZV strain Ellen; [4]
  IC50: 0.09 µg/mL (≈ 0.186 µM)

## O=C(Nc1ccc(NC(=S)Nc2cc(N3CCCCC3)cc(C(F)(F)F)c2)cc1)c1ccccc1F [Example 570, 2-Fluoro-N-{4-[3-(3-piperidin-1-yl-5-trifluoromethyl-phenyl)-thioureido]-phenyl}-benzamide]
[1]; [3]
  IC50: > 0.5 µg/mL
VZV strain Ellen; [4]
  IC50: > 10 µg/mL

## CC(NC(=S)Nc1ccc(NC(=O)c2ccccc2I)cc1)c1ccc(F)cc1 (stereo not shown) [Example 812, N-(4-{3-[1-(4-Fluoro-phenyl)-ethyl]-thioureido}-phenyl)-2-iodo-benzamide]
VZV strain Ellen; [2]
  IC50: 3.4 µg/mL (≈ 6.55 µM)

## O=C(Nc1ccc(NC(=S)NCc2cc(F)cc(C(F)(F)F)c2)cc1)c1ccccc1F [Example 586, 2-Fluoro-N-{4-[3-(3-fluoro-5-trifluoromethyl-benzyl)-thioureido]-phenyl}-benzamide]
VZV strain Ellen; [2]
  IC50: > 10 µg/mL

## CC(NC(=S)Nc1ccc(NC(=O)c2ccccc2F)cc1)c1ccc(Br)cc1 (stereo not shown) [Example 1102, N-(4-{3-[1-(4-Bromo-phenyl)-ethyl]-thioureido}-phenyl)-2-fluoro-benzamide]
[1]; [3]
  IC50: 1.7 µg/mL (≈ 3.6 µM)
VZV strain Ellen; [4]
  IC50: 0.2 µg/mL (≈ 0.423 µM)

## C[C@H](NC(=S)Nc1ccc(NC(=O)c2nccc3ccccc23)cc1)c1ccc(Br)cc1 [Example 1107, Isoquinoline-1-carboxylic acid (4-{3-[(1S)-1-(4-bromo-phenyl)-ethyl]-thioureido}-phenyl)-amide]
[1]; [3]
  IC50: 8.1 µg/mL (≈ 16 µM)
VZV strain Ellen; [4]
  IC50: 0.05 µg/mL (≈ 0.0989 µM)

## O=C(Nc1ccc(NC(=S)NCc2cc(Cl)cc(Cl)c2)cc1)c1ccccc1F [Example 583, N-{4-[3-(3,5-Dichloro-benzyl)-thioureido]-phenyl}-2-fluoro-benzamide]
VZV strain Ellen; [4]
  IC50: 10 µg/mL (≈ 22.3 µM)

## CN1CCN(c2cc(NC(=S)Nc3ccc(NC(=O)c4ccccc4F)cc3)cc(C(F)(F)F)c2)CC1 [Example 569, 2-Fluoro-N-(4-{3-[3-(4-methyl-piperazin-1-yl)-5-trifluoromethyl-phenyl]-thioureido}-phenyl)-benzamide]
[1]; [3]
  IC50: > 0.5 µg/mL
VZV strain Ellen; [4]
  IC50: 3 µg/mL (≈ 5.64 µM)

## CC(NC(=S)Nc1ccc(NC(=O)c2nccc3ccccc23)cc1)c1ccc(F)cc1 (stereo not shown) [Example 1110, Isoquinoline-1-carboxylic acid (4-{3-[1-(4-fluoro-phenyl)-ethyl]-thioureido}-phenyl)-amide]
[1]; read-out: IC50 ug/ml HCMV
  IC50: 3.3 µg/mL (≈ 7.42 µM)
VZV strain Ellen; [2]
  IC50: 0.05 µg/mL (≈ 0.112 µM)

## O=C(Nc1ccc(NC(=S)NCc2cc(F)cc(F)c2)cc1)c1ccccc1F [Example 580, N-{4-[3-(3,5-Difluoro-benzyl)-thioureido]-phenyl}-2-fluoro-benzamide]
VZV strain Ellen; [2]
  IC50: > 10 µg/mL

## O=C(Nc1ccc(NC(=S)NCc2ccc(N3CCCCC3)c(C(F)(F)F)c2)cc1)c1ccccc1F [Example 616, 2-Fluoro-N-{4-[3-(4-piperidin-1-yl-3-trifluoromethyl-benzyl)-thioureido]-phenyl}-benzamide]
VZV strain Ellen; [4]
  IC50: > 10 µg/mL

## C[C@@H](NC(=S)Nc1ccc(NC(=O)c2ccccc2F)cc1)c1ccc(Br)cc1 [Example 1005, N-(4-{3-[(1R)-1-(4-Bromo-phenyl)-ethyl]-thioureido}-phenyl)-2-fluoro-benzamide]
[1]; [3]
  IC50: 2.1 µg/mL (≈ 4.45 µM)
VZV strain Ellen; [4]
  IC50: 4.3 µg/mL (≈ 9.1 µM)

## CC(NC(=S)Nc1ccc(NC(=O)c2ccccc2C(F)(F)F)cc1)c1ccc(F)cc1 (stereo not shown) [Example 992, N-(4-{3-[1-(4-Fluoro-phenyl)-ethyl]-thioureido}-phenyl)-2-trifluoromethyl-benzamide]
[1]; read-out: IC50 ug/ml HCMV
  IC50: 4 µg/mL (≈ 8.67 µM)
VZV strain Ellen; [2]
  IC50: 1.2 µg/mL (≈ 2.6 µM)

## O=C(Nc1ccc(NC(=S)NCCOc2ccccc2)cc1)c1ccccc1F [Example 625, 2-Fluoro-N-{4-[3-(2-phenoxy-ethyl)-thioureido]-phenyl}-benzamide]
VZV strain Ellen; [2]
  IC50: 4 µg/mL (≈ 9.77 µM)

## CCC(C)Cc1cc(NC(=S)Nc2ccc(NC(=O)c3ccccc3F)cc2)cc(C(F)(F)F)c1 (stereo not shown) [Example 577, 2-Fluoro-N-(4-{3-[3-(2-methyl-butyl)-5-trifluoromethyl-phenyl]-thioureido}-phenyl)-benzamide]
VZV strain Ellen; [4]
  IC50: > 7.5 µg/mL

## COc1ccccc1C(=O)Nc1ccc(NC(=S)N[C@H](C)c2ccc(Br)cc2)cc1 [Example 1105, N-(4-{3-[(1R)-1-(4-Bromo-phenyl)-ethyl]-thioureido}-phenyl)-2-methoxy-benzamide]
[1]; [3]
  IC50: 2.5 µg/mL (≈ 5.16 µM)
VZV strain Ellen; [4]
  IC50: > 7.5 µg/mL

## CC(NC(=S)Nc1ccc(NC(=O)c2ccccc2C#N)cc1)c1ccc(F)cc1 (stereo not shown) [Example 993, 2-Cyano-N-(4-{3-[1-(4-fluoro-phenyl)-ethyl]-thioureido}-phenyl)-benzamide]
VZV strain Ellen; [2]
  IC50: 2.7 µg/mL (≈ 6.45 µM)

## C[C@H](NC(=S)Nc1ccc(NC(=O)c2ccc(F)cc2)cc1)c1ccc(Br)cc1 [Example 1103, N-(4-{3-[(1S)-1-(4-Bromo-phenyl)-ethyl]-thioureido}-phenyl)-4-fluoro-benzamide]
[1]; [3]
  IC50: 3.4 µg/mL (≈ 7.2 µM)
VZV strain Ellen; [4]
  IC50: 0.47 µg/mL (≈ 0.995 µM)

## C[C@H](NC(=S)Nc1ccc(NC(=O)c2nccc3ccccc23)cc1)c1ccc(C#N)cc1 [Example 1111]
[1]; [3]
  IC50: > 10 µg/mL
VZV strain Ellen; Human alphaherpesvirus 3, HFF, read-out: IC50 (ug/ml) VZV
  IC50: 0.1 µg/mL (≈ 0.221 µM)

## C[C@H](NC(=S)Nc1ccc(NC(=O)c2cc3ccccc3cn2)cc1)c1ccc(Br)cc1 [Example 1108, Isoquinoline-3-carboxylic acid (4-{3-[(1S)-1-(4-bromo-phenyl)-ethyl]-thioureido}-phenyl)-amide]
[1]; [3]
  IC50: 2.3 µg/mL (≈ 4.55 µM)
VZV strain Ellen; [4]
  IC50: 0.05 µg/mL (≈ 0.0989 µM)
